The source of these data is ChEMBL document CHEMBL4831534, “Design, Synthesis, and Monoamine Oxidase Inhibitory Activity of (+)-Cinchonaminone and Its Simplified Derivatives” (ACS Med Chem Lett, 2021).

In general, IC50 refers to the concentration at which inhibition is half-maximal.

The target of assay [1] is T1, Amine oxidase [flavin-containing] A (Homo sapiens, UniProt P21397).
T1 sequence (P21397 whole entry): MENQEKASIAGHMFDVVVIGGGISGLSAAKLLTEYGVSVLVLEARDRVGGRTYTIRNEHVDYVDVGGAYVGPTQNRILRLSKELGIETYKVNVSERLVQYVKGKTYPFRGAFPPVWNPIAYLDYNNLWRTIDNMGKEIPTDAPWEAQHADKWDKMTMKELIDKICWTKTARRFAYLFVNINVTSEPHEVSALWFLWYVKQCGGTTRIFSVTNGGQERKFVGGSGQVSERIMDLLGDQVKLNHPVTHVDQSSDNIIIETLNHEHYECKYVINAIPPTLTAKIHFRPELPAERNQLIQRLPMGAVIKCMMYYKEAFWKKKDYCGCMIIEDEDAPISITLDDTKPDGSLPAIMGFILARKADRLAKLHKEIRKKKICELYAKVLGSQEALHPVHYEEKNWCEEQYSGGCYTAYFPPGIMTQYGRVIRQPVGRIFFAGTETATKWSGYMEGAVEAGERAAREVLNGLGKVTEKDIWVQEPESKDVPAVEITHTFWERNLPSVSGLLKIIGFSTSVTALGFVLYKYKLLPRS
Nature of the assay: Inhibition of human recombinant MAO-A expressed in baculovirus infected BTI insect cells using luminogenic MAO substrate incubated for 1 hr by MAO-Glo assay.

Assay [2] deals with T2, Amine oxidase [flavin-containing] B (Homo sapiens, UniProt P27338).
T2 sequence (P27338 whole entry): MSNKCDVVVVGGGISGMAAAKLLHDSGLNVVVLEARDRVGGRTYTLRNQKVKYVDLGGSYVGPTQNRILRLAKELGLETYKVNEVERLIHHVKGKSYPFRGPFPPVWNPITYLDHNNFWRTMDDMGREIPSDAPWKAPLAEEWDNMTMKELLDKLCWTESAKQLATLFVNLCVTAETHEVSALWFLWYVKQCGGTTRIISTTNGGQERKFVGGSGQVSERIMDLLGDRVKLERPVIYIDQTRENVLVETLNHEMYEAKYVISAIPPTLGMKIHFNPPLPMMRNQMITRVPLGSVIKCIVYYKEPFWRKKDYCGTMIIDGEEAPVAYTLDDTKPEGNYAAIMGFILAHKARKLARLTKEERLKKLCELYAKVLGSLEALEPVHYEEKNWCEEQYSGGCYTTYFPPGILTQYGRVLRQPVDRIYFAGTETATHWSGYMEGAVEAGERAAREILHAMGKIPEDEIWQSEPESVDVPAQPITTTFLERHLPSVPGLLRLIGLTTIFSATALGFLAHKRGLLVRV
Nature of the assay: Inhibition of human recombinant MAO-B expressed in baculovirus infected BTI insect cells using luminogenic MAO substrate incubated for 1 hr by MAO-Glo assay.

The species named for another assay is Homo sapiens. Nature of the assay: Selectivity index, ratio of IC50 for human recombinant MOA-A expressed in baculovirus infected BTI insect cells to IC50 for MAO-B expressed in baculovirus infected BTI insect cells. The note with it: time 1.0 hrs.

Consider `Cc1c(C(=O)CC2CCNCC2)[nH]c2ccccc12`, for which the figures for the IC50 in assay [1] and in assay [2] were 82.5 µM and 121 µM, respectively.
On the same counts, the results for `O=C(CC1CCNCC1)c1[nH]c2ccccc2c1CCO` are above 1000 µM and above 1000 µM.
With `C=C[C@@H]1CNCC[C@@H]1CC(=O)c1[nH]c2ccccc2c1CCO`, the values for the IC50 in assay [1] and in assay [2] were above 1000 µM and 488 µM, respectively.
On the same counts, the results for `C=C[C@H]1CNCC[C@H]1CC(=O)c1[nH]c2ccccc2c1CCO` are above 1000 µM and 412 µM.
On to `O=C(CC1CCNCC1)c1cc2ccccc2[nH]1`, for which the IC50 stood at 720 µM in assay [1] and 66.6 µM in assay [2]. Further, in the assay listed under Homo sapiens, the Selectivity Index was found to be 11.
